Experimental data published in PubChem BioAssay (NCI).
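Abbreviation: GI50, concentration required for 50% inhibition of growth. TGI denotes the concentration required for complete inhibition of growth.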

Experiments:
Assay in all cases: growth of human tumour cells (NCI), 384-well format
HOP-92 NSCLC = tested on: HOP-92 NSCLC
SW-620 colon = tested on: SW-620 colon
T-47D breast = tested on: T-47D breast
MCF7 breast = tested on: MCF7 breast
MDA-MB-468 breast = tested on: MDA-MB-468 breast
HL-60(TB) leukemia = tested on: HL-60(TB) leukemia
HCT-116 colon = tested on: HCT-116 colon
ACHN renal = tested on: ACHN renal
NCI-H460 NSCLC = tested on: NCI-H460 NSCLC
A498 renal = tested on: A498 renal
K-562 leukemia = tested on: K-562 leukemia
NCI-H322M lung = tested on: NCI-H322M lung
SR leukemia = tested on: SR leukemia
LOX IMVI melanoma = tested on: LOX IMVI melanoma
CAKI-1 renal = tested on: CAKI-1 renal
SK-MEL-5 melanoma = tested on: SK-MEL-5 melanoma
UACC-62 melanoma = tested on: UACC-62 melanoma
OVCAR-8 ovarian = tested on: OVCAR-8 ovarian
SN12C renal = tested on: SN12C renal
NCI/ADR-RES ovarian = tested on: NCI/ADR-RES ovarian
786-0 renal = tested on: 786-0 renal
A549 NSCLC = tested on: A549 NSCLC
BT-549 breast = tested on: BT-549 breast
HOP-62 NSCLC = tested on: HOP-62 NSCLC
UO-31 renal = tested on: UO-31 renal
EKVX NSCLC = tested on: EKVX NSCLC
SNB-19 CNS = tested on: SNB-19 CNS
SF-268 CNS = tested on: SF-268 CNS
TK-10 renal = tested on: TK-10 renal
CCRF-CEM leukemia = tested on: CCRF-CEM leukemia
OVCAR-5 ovarian = tested on: OVCAR-5 ovarian
KM12 colon = tested on: KM12 colon
M14 melanoma = tested on: M14 melanoma
DU-145 prostate = tested on: DU-145 prostate
OVCAR-3 ovarian = tested on: OVCAR-3 ovarian
NCI-H226 lung = tested on: NCI-H226 lung
RXF 393 renal = tested on: RXF 393 renal
HT29 colon = tested on: HT29 colon
NCI-H522 lung = tested on: NCI-H522 lung
HCC-2998 colon = tested on: HCC-2998 colon
SNB-75 CNS = tested on: SNB-75 CNS
SK-MEL-28 melanoma = tested on: SK-MEL-28 melanoma
UACC-257 melanoma = tested on: UACC-257 melanoma
MDA-MB-435 melanoma = tested on: MDA-MB-435 melanoma
PC-3 prostate = tested on: PC-3 prostate
OVCAR-4 ovarian = tested on: OVCAR-4 ovarian
COLO 205 colon = tested on: COLO 205 colon
IGROV1 ovarian = tested on: IGROV1 ovarian
MDA-MB-231 breast = tested on: MDA-MB-231 breast
MOLT-4 leukemia = tested on: MOLT-4 leukemia
NCI-H23 lung = tested on: NCI-H23 lung
SF-295 CNS = tested on: SF-295 CNS
SF-539 CNS = tested on: SF-539 CNS
U251 glioblastoma = tested on: U251 glioblastoma
RPMI-8226 leukemia = tested on: RPMI-8226 leukemia
SK-MEL-2 melanoma = tested on: SK-MEL-2 melanoma
SK-OV-3 ovarian = tested on: SK-OV-3 ovarian
MALME-3M melanoma = tested on: MALME-3M melanoma
HCT-15 colon = tested on: HCT-15 colon
HS 578T breast = tested on: HS 578T breast

## CO[C@H]1/C=C/C[C@H](C)[C@@H](C)S(=O)(=O)NC(=O)c2ccc3c(c2)N(C[C@@H]2CC[C@H]21)C[C@@]1(CCCc2cc(Cl)ccc21)CO3
HOP-92 NSCLC
  GI50: 2130 nM
  TGI: 5710 nM
SW-620 colon
  GI50: 2120 nM
  TGI: 4770 nM
T-47D breast
  GI50: 2790 nM
  TGI: 11100 nM
MCF7 breast
  GI50: 1310 nM
  TGI: 4000 nM
MDA-MB-468 breast
  GI50: 339 nM
  TGI: 1070 nM
HL-60(TB) leukemia
  GI50: 21 nM
  TGI: 42.3 nM
HCT-116 colon
  GI50: 2930 nM
  TGI: 8980 nM
ACHN renal
  GI50: 4500 nM
  TGI: 14700 nM
NCI-H460 NSCLC
  GI50: 1780 nM
  TGI: 3440 nM
A498 renal
  GI50: 3290 nM
  TGI: 12500 nM
K-562 leukemia
  GI50: 2000 nM
  TGI: 5520 nM
NCI-H322M lung
  GI50: 6300 nM
  TGI: 18400 nM
SR leukemia
  GI50: 28.7 nM
  TGI: 173 nM
LOX IMVI melanoma
  GI50: 2290 nM
  TGI: 4180 nM
CAKI-1 renal
  GI50: 11300 nM
  TGI: 23500 nM
SK-MEL-5 melanoma
  GI50: 1660 nM
  TGI: 3070 nM
UACC-62 melanoma
  GI50: 284 nM
  TGI: 762 nM
OVCAR-8 ovarian
  GI50: 2810 nM
  TGI: 7420 nM
SN12C renal
  GI50: 2920 nM
  TGI: 7990 nM
NCI/ADR-RES ovarian
  GI50: 1740 nM
  TGI: 3640 nM
786-0 renal
  GI50: 4400 nM
  TGI: 15800 nM
A549 NSCLC
  GI50: 3370 nM
  TGI: 11100 nM
BT-549 breast
  GI50: 1650 nM
  TGI: 3330 nM
HOP-62 NSCLC
  GI50: 2610 nM
  TGI: 6270 nM
UO-31 renal
  GI50: 6300 nM
  TGI: 18200 nM
EKVX NSCLC
  GI50: 1980 nM
  TGI: 7230 nM
SNB-19 CNS
  GI50: 3810 nM
  TGI: 11900 nM
SF-268 CNS
  GI50: 2450 nM
  TGI: 7410 nM
TK-10 renal
  GI50: 4880 nM
  TGI: 15700 nM
CCRF-CEM leukemia
  GI50: 468 nM
  TGI: 1110 nM
OVCAR-5 ovarian
  GI50: 8160 nM
  TGI: 20100 nM
KM12 colon
  GI50: 3970 nM
  TGI: 13500 nM
M14 melanoma
  GI50: 2070 nM
  TGI: 4400 nM
DU-145 prostate
  GI50: 3870 nM
  TGI: 13100 nM
OVCAR-3 ovarian
  GI50: 1710 nM
  TGI: 3220 nM
NCI-H226 lung
  GI50: 3100 nM
  TGI: 9050 nM
RXF 393 renal
  GI50: 689 nM
  TGI: 2350 nM
HT29 colon
  GI50: 3590 nM
  TGI: 12400 nM
NCI-H522 lung
  GI50: 950 nM
  TGI: 2270 nM
HCC-2998 colon
  GI50: 1620 nM
  TGI: 3840 nM
SNB-75 CNS
  GI50: 3600 nM
  TGI: 9040 nM
SK-MEL-28 melanoma
  GI50: 2670 nM
  TGI: 6640 nM
UACC-257 melanoma
  GI50: 2950 nM
  TGI: 9810 nM
MDA-MB-435 melanoma
  GI50: 1980 nM
  TGI: 4870 nM
PC-3 prostate
  GI50: 3930 nM
  TGI: 14000 nM
OVCAR-4 ovarian
  GI50: 1330 nM
  TGI: 3390 nM
COLO 205 colon
  GI50: 4060 nM
  TGI: 11300 nM
IGROV1 ovarian
  GI50: 3710 nM
  TGI: 13400 nM
MDA-MB-231 breast
  GI50: 3640 nM
  TGI: 9550 nM
MOLT-4 leukemia
  GI50: 263 nM
  TGI: 794 nM
NCI-H23 lung
  GI50: 758 nM
  TGI: 2200 nM
SF-295 CNS
  GI50: 1800 nM
  TGI: 3720 nM
SF-539 CNS
  GI50: 1750 nM
  TGI: 3420 nM
U251 glioblastoma
  GI50: 3200 nM
  TGI: 9920 nM
RPMI-8226 leukemia
  GI50: 17.2 nM
  TGI: 40.5 nM
SK-MEL-2 melanoma
  GI50: 211 nM
  TGI: 677 nM
SK-OV-3 ovarian
  GI50: 4240 nM
  TGI: 13100 nM
MALME-3M melanoma
  GI50: 2830 nM
  TGI: 7600 nM
HCT-15 colon
  GI50: 3390 nM
  TGI: 10600 nM

## CO[C@@]12[C@H](COC(N)=O)C3=C(C(=O)C(C)=C(N)C3=O)N1C[C@@H]1N[C@@H]12
HOP-92 NSCLC
  GI50: 1850 nM
  TGI: 6780 nM
SW-620 colon
  GI50: 145 nM
  TGI: 1850 nM
T-47D breast
  GI50: 1600 nM
  TGI: 11200 nM
MCF7 breast
  GI50: 94.7 nM
  TGI: 2870 nM
MDA-MB-468 breast
  GI50: 71.8 nM
  TGI: 212 nM
HL-60(TB) leukemia
  GI50: 17.8 nM
  TGI: 41 nM
HCT-116 colon
  GI50: 82.3 nM
  TGI: 1360 nM
ACHN renal
  GI50: 169 nM
  TGI: 844 nM
NCI-H460 NSCLC
  TGI: 110 nM
A498 renal
  GI50: 179 nM
  TGI: 932 nM
K-562 leukemia
  GI50: 914 nM
  TGI: 2830 nM
NCI-H322M lung
  GI50: 401 nM
  TGI: 1450 nM
SR leukemia
  GI50: 13.5 nM
  TGI: 28.1 nM
LOX IMVI melanoma
  GI50: 159 nM
  TGI: 1300 nM
CAKI-1 renal
  GI50: 226 nM
  TGI: 1640 nM
SK-MEL-5 melanoma
  GI50: 40.5 nM
  TGI: 102 nM
UACC-62 melanoma
  GI50: 100 nM
  TGI: 1150 nM
OVCAR-8 ovarian
  GI50: 439 nM
  TGI: 4600 nM
SN12C renal
  GI50: 98.9 nM
  TGI: 3160 nM
NCI/ADR-RES ovarian
  GI50: 5800 nM
  TGI: > 43000 nM
786-0 renal
  GI50: 261 nM
  TGI: 3690 nM
HS 578T breast
  GI50: 3260 nM
  TGI: 7500 nM
A549 NSCLC
  GI50: 92.9 nM
  TGI: 1060 nM
BT-549 breast
  GI50: 258 nM
  TGI: 1890 nM
HOP-62 NSCLC
  GI50: 38.7 nM
  TGI: 213 nM
UO-31 renal
  GI50: 1130 nM
  TGI: 4710 nM
EKVX NSCLC
  GI50: 4520 nM
  TGI: 11500 nM
TK-10 renal
  GI50: 1720 nM
  TGI: 13100 nM
CCRF-CEM leukemia
  GI50: 108 nM
  TGI: 257 nM
OVCAR-5 ovarian
  GI50: 1120 nM
  TGI: 4350 nM
KM12 colon
  GI50: 582 nM
  TGI: 3600 nM
M14 melanoma
  GI50: 97.4 nM
  TGI: 1190 nM
DU-145 prostate
  GI50: 44.7 nM
  TGI: 208 nM
OVCAR-3 ovarian
  GI50: 1320 nM
  TGI: 3770 nM
NCI-H226 lung
  GI50: 553 nM
  TGI: 3250 nM
RXF 393 renal
  GI50: 1600 nM
  TGI: 3190 nM
HT29 colon
  GI50: 368 nM
  TGI: 2250 nM
NCI-H522 lung
  GI50: 276 nM
  TGI: 1370 nM
HCC-2998 colon
  GI50: 236 nM
  TGI: 1380 nM
SK-MEL-28 melanoma
  GI50: 1240 nM
  TGI: 5210 nM
UACC-257 melanoma
  GI50: 914 nM
  TGI: 2950 nM
MDA-MB-435 melanoma
  GI50: 1710 nM
  TGI: 8720 nM
PC-3 prostate
  GI50: 2340 nM
  TGI: 9940 nM
OVCAR-4 ovarian
  GI50: 2270 nM
  TGI: 5230 nM
COLO 205 colon
  GI50: 250 nM
  TGI: 1890 nM
IGROV1 ovarian
  GI50: 1030 nM
  TGI: 2630 nM
MDA-MB-231 breast
  GI50: 4010 nM
  TGI: 10700 nM
MOLT-4 leukemia
  GI50: 16.8 nM
  TGI: 31.1 nM
NCI-H23 lung
  GI50: 46 nM
  TGI: 162 nM
U251 glioblastoma
  GI50: 111 nM
  TGI: 1500 nM
RPMI-8226 leukemia
  GI50: 161 nM
  TGI: 675 nM
SK-MEL-2 melanoma
  GI50: 1250 nM
  TGI: 2680 nM
SK-OV-3 ovarian
  GI50: 137 nM
  TGI: 770 nM
MALME-3M melanoma
  GI50: 576 nM
  TGI: 1960 nM
HCT-15 colon
  GI50: 328 nM
  TGI: 2170 nM
